Paper PMC6979384, “Characterization of the plant homeodomain (PHD) reader family for their histone tail interactions” (Epigenetics & Chromatin, 2020)

Key:
Experiment in all cases: Histone peptide microarray
Type in all cases: binding, human
PHF21A = details: GST-tagged PHF21A; sheet Array Heatmap; each array performed twice, total n = 4
Summary of the method: (§1)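 Purified PHD finger domains fused to GST are screened against 293 synthetic histone peptides bearing one or several post-translational modifications. The protein is used at 0.5 μM, and the signal from four replicate arrays is averaged, with standard deviation given.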

KDM5B (3) = details: GST-tagged KDM5B (3); sheet Array Heatmap; each array performed twice, total n = 4
Summary of the method: as §1

CHD5 (PCC) = details: GST-tagged CHD5 (PCC = PHD + Dual Chromodomain); sheet Array Heatmap; each array performed twice, total n = 4
Summary of the method: as §1

ING5 = details: GST-tagged ING5; sheet Array Heatmap; each array performed twice, total n = 4
Summary of the method: as §1

AIRE (PP) = details: GST-tagged AIRE (PP); sheet Array Heatmap; each array performed twice, total n = 4
Summary of the method: as §1

ING3 = details: GST-tagged ING3; sheet Array Heatmap; each array performed twice, total n = 4
Summary of the method: as §1

RAG2 = details: GST-tagged RAG2; sheet Array Heatmap; each array performed twice, total n = 4
Summary of the method: as §1

PHRF1 (RP) = details: GST-tagged PHRF1 (RP); sheet Array Heatmap; each array performed twice, total n = 4
Summary of the method: as §1

PHF23 = details: GST-tagged PHF23; sheet Array Heatmap; each array performed twice, total n = 4
Summary of the method: as §1

CHD4 (PPCC) = details: GST-tagged CHD4 (PPCC = Dual PHD + Dual Chromodomain); sheet Array Heatmap; each array performed twice, total n = 4
Summary of the method: as §1

DPF2 (PPC2W2) = details: GST-tagged DPF2 (PPC2W2 = Dual PHD + C2W2-type Zn-finger); sheet Array Heatmap; each array performed twice, total n = 4
Summary of the method: as §1

SP140L = details: GST-tagged SP140L; sheet Array Heatmap; each array performed twice, total n = 4
Summary of the method: as §1

MLL5 = details: GST-tagged MLL5; sheet Array Heatmap; each array performed twice, total n = 4
Summary of the method: as §1

ING4 = details: GST-tagged ING4; sheet Array Heatmap; each array performed twice, total n = 4
Summary of the method: as §1

KDM5A (1) = details: GST-tagged KDM5A (1); sheet Array Heatmap; each array performed twice, total n = 4
Summary of the method: as §1

KDM5B (1) = details: GST-tagged KDM5B (1); sheet Array Heatmap; each array performed twice, total n = 4
Summary of the method: as §1

PHF13 = details: GST-tagged PHF13; sheet Array Heatmap; each array performed twice, total n = 4
Summary of the method: as §1

KDM7A = details: GST-tagged KDM7A; sheet Array Heatmap; each array performed twice, total n = 4
Summary of the method: as §1

BAZ2B = details: GST-tagged BAZ2B; sheet Array Heatmap; each array performed twice, total n = 4
Summary of the method: as §1

ING1 = details: GST-tagged ING1; sheet Array Heatmap; each array performed twice, total n = 4
Summary of the method: as §1

CHD5 (PPCC) = details: GST-tagged CHD5 (PPCC = Dual PHD + Dual Chromodomain); sheet Array Heatmap; each array performed twice, total n = 4
Summary of the method: as §1

TRIM66 (PB) = details: GST-tagged TRIM66 (PB = PHD + Bromodomain); sheet Array Heatmap; each array performed twice, total n = 4
Summary of the method: as §1

DIDO1 = details: GST-tagged DIDO1; sheet Array Heatmap; each array performed twice, total n = 4
Summary of the method: as §1

MORC3 (CW) = details: GST-tagged MORC3 (CW = CW-type Zn-finger); sheet Array Heatmap; each array performed twice, total n = 4
Summary of the method: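 Each reader, produced as a GST fusion and purified, was tested at 0.5 μM on synthetic histone peptides (293 in total) carrying single or combinatorial marks. Intensities averaged over four replicates.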

TAF3 = details: GST-tagged TAF3; sheet Array Heatmap; each array performed twice, total n = 4
Summary of the method: as §1

BPTF (PB) = details: GST-tagged BPTF (PB = PHD + Bromodomain); sheet Array Heatmap; each array performed twice, total n = 4
Summary of the method: as §1

KDM5A (3) = details: GST-tagged KDM5A (3); sheet Array Heatmap; each array performed twice, total n = 4
Summary of the method: as §1

PHF8 = details: GST-tagged PHF8; sheet Array Heatmap; each array performed twice, total n = 4
Summary of the method: as §1

KDM4C (TTP) = details: GST-tagged KDM4C (TTP = Tandem Tudor domain + PHD); sheet Array Heatmap; each array performed twice, total n = 4
Summary of the method: as §1

PHF2 = details: GST-tagged PHF2; sheet Array Heatmap; each array performed twice, total n = 4
Summary of the method: as §1

ING2 = details: GST-tagged ING2; sheet Array Heatmap; each array performed twice, total n = 4
Summary of the method: as §1

Substance	Array Heatmap signal (histone peptide microarray) (PHF21A)	Array Heatmap signal (histone peptide microarray) (KDM5B (3))	Array Heatmap signal (histone peptide microarray) (CHD5 (PCC))	Array Heatmap signal (histone peptide microarray) (ING5)	Array Heatmap signal (histone peptide microarray) (AIRE (PP))	Array Heatmap signal (histone peptide microarray) (ING3)	Array Heatmap signal (histone peptide microarray) (RAG2)	Array Heatmap signal (histone peptide microarray) (PHRF1 (RP))	Array Heatmap signal (histone peptide microarray) (PHF23)	Array Heatmap signal (histone peptide microarray) (CHD4 (PPCC))	Array Heatmap signal (histone peptide microarray) (DPF2 (PPC2W2))	Array Heatmap signal (histone peptide microarray) (SP140L)	Array Heatmap signal (histone peptide microarray) (MLL5)	Array Heatmap signal (histone peptide microarray) (ING4)	Array Heatmap signal (histone peptide microarray) (KDM5A (1))	Array Heatmap signal (histone peptide microarray) (KDM5B (1))	Array Heatmap signal (histone peptide microarray) (PHF13)	Array Heatmap signal (histone peptide microarray) (KDM7A)	Array Heatmap signal (histone peptide microarray) (BAZ2B)	Array Heatmap signal (histone peptide microarray) (ING1)	other results
H3K4me3 + K9ac + K14ac + K18ac: H3 1-20	0.4925	0.8339	0.8618	0.4716	0.4865	0.8559	0.8746	0.5895	0.8373	0.5745	0.7652	0.3627	0.936	0.625	0.4983	0.7481	0.7829	0.5567	0.6196	0.7787	Array Heatmap signal (histone peptide microarray) (CHD5 (PPCC)): 0.5931; Array Heatmap signal (histone peptide microarray) (TRIM66 (PB)): 0.6004; Array Heatmap signal (histone peptide microarray) (DIDO1): 0.9126; Array Heatmap signal (histone peptide microarray) (MORC3 (CW)): 1; Array Heatmap signal (histone peptide microarray) (TAF3): 0.6574; Array Heatmap signal (histone peptide microarray) (BPTF (PB)): 0.7619; Array Heatmap signal (histone peptide microarray) (KDM5A (3)): 0.9909; Array Heatmap signal (histone peptide microarray) (PHF8): 0.7502; Array Heatmap signal (histone peptide microarray) (KDM4C (TTP)): 0.6463; Array Heatmap signal (histone peptide microarray) (PHF2): 0.7873; Array Heatmap signal (histone peptide microarray) (ING2): 0.8772
H3K4me3 + K9ac + K18ac: H3 1-20	0.4825	0.9067	0.8455	0.4905	0.5297	0.8253	0.8902	0.6174	0.8424	0.5646	0.728	0.3543	0.9085	0.6909	0.5009	0.7108	0.8179	1	0.5371	0.8615	Array Heatmap signal (histone peptide microarray) (CHD5 (PPCC)): 0.6046; Array Heatmap signal (histone peptide microarray) (TRIM66 (PB)): 0.7372; Array Heatmap signal (histone peptide microarray) (DIDO1): 0.9071; Array Heatmap signal (histone peptide microarray) (MORC3 (CW)): 0.8949; Array Heatmap signal (histone peptide microarray) (TAF3): 0.7825; Array Heatmap signal (histone peptide microarray) (BPTF (PB)): 0.7655; Array Heatmap signal (histone peptide microarray) (KDM5A (3)): 0.919; Array Heatmap signal (histone peptide microarray) (PHF8): 1; Array Heatmap signal (histone peptide microarray) (KDM4C (TTP)): 0.7748; Array Heatmap signal (histone peptide microarray) (PHF2): 0.7127; Array Heatmap signal (histone peptide microarray) (ING2): 0.8776
